Key:
p38β = p38β (Homo sapiens, UniProt Q15759); experiment: In vitro inhibition of p38 kinase (LANCE Ultra TR-FRET); format: biochemical; settings: read-out: Kinase in vitro IC50(nM) p38β
p38γ = target: T1, p38γ (Homo sapiens, UniProt P53778); experiment: as above; format: biochemical; settings: read-out: Kinase in vitro IC50(nM) p38γ
T1 sequence (P53778 1-367): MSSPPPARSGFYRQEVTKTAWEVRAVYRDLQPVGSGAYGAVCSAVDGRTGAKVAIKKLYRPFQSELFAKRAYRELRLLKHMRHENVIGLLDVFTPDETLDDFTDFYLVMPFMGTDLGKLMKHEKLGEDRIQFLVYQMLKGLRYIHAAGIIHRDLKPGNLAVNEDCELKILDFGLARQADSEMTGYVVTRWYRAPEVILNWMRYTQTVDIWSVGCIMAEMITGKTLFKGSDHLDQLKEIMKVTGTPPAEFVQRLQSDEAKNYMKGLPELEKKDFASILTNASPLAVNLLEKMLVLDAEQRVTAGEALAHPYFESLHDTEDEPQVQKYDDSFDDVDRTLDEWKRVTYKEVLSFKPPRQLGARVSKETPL
Description: 10 mM of the storage solution of the test compound was taken and placed in a 96-well compound plate, and using DMSO for the compound at an initial concentration of 100×, which was then used as the first concentration and then carried out a 3-fold gradient dilution with DMSO for a total of 10 concentrations. After that, 1 μL of gradient dilutions were added to 19 μL of 1× reaction buffer to prepare 5× compound for later use. […] To the compound-free control well was added 2 μL of the following liquid: 19 μL of 1× reaction buffer with addition of 1 μL of DMSO. To the Min control well was added 2 μL of 250 mM EDTA.
1× of LANCE® Detection value Buffer was used to prepare a 2×Antibody for use, and the amount was 5 μL per well, at the same time 10 mM EDTA was prepared for later use. After the enzyme reaction was carried out for 30 minutes, 5 μL 10 mM EDTA was added to the 384-well plate and the reaction was carried out at room temperature for 5 minutes. Afterwards, 5 μL LANCE® Ultra Europium-anti-phospho-eIF4E-binding protein 1 (Thr37/46) was added to the 384-well plate and the reaction was carried out at room temperature for one hour.

p38α = p38α (Homo sapiens, UniProt Q16539); experiment: as above; format: biochemical; settings: read-out: Kinase in vitro IC50(nM) p38α
BV-2 cells = experiment: Inhibition of inflammation in LPS-stimulated BV-2 cells (ELISA of inflammatory factors); format: cell-based; settings: Mus musculus, 100 ng/mL LPS 4 hours; for Emax: read-out: BV-2 Max Inh. (%); for IC50: read-out: BV-2 Rf IC50
Description: Normal cultured 8th passage BV-2 cells were taken, and inoculated separately in 96-well plates at a certain cell density. The cell culture plates were cultured at 37° C. and 5% CO2 for 24 hours.
After inoculating the plate for 24 hours, the cell culture medium was removed, and then 100 μL of a 4-fold gradient dilution compound starting from 10,000 nM prepared in DMEM+10% FBS, where High control and Low control contained 0.1% DMSO without compound. With 100 μL per well, the cell culture plate was cultured at 37° C. with 5% CO2 for one hour.
The compound-containing cultures were removed. 100 ng/mL of LPS was prepared with DMEM+10% FBS culture medium, and then the compound was diluted in a 4-fold gradient from 10,000 nM with LPS-containing culture medium. In low control, the compound was replaced with 0.1% DMSO. In High control, 0.1% DMSO was prepared with culture medium without LPS. 100 μL per well, and the cell culture plates were cultured at 37° C. with 5% CO2 for 4 hours.
After 4 hours of LPS stimulation, 110 μL of the culture solution was aspirated, and centrifuged at 2000 rpm for 2 minutes. A further 90 μl of supernatant was aspirated and immediately put into −20° C. for freezing.
ELISA kits were used to detect the expression of inflammatory factors such as IL-10, TNFα, etc. The OD450 signal values were measured by microplate reader. The in vitro inhibitory activity of the compounds was calculated according to the following formula: Inhibition rate: Inhibition rate (%)=(signal value of control−signal value of administration)/(high signal value of control−low signal value of control)×100%. And according to the inhibition rate of each concentration, Graphpad Prism 5.0 was used to curve fit the […] signal values at each concentration and calculate the corresponding IC50, which is shown in Table 1.

[1] = Pharmacokinetic properties in mice; format: in vivo, ICR mice; settings: for absorption compared with the positive compound VX-745 at the same dose: 10 mg/kg; for Thalf (iv): iv 3 mg/kg; for Cmax / MRT / Tmax: male, ICR, mouse, plasma; for Cmax / MRT / Tmax / AUClast (po): po 10 mg/kg; for BA: po 10 mg/kg vs iv 3 mg/kg; for AUClast (po): 5-1440 minutes
Description: Forty-eight male ICR mice, weighing 18-22 g (provided by Shanghai Xipuerbikai Laboratory Animal Co., Ltd, Certificate No.: 20130016008116). The mice were […] for 12-16 hours before the experiment but water was allowed.
Blood samples were collected from the fundus vein of mice before and at 2, 5, 15, 30, 60, 90, 120, 240, 480, 600, and 1440 minutes of the administration, respectively.
Blood samples were collected from the fundus vein of mice before and at 5, 15, 30, 60, 90, 120, 240, 480 and 1440 minutes of administration, respectively.
2-3 time points were taken for each mouse. The mice were sacrificed at 5, 15, 30, 60 and 1440 minutes after the administration (3 mice per time point), and the brains were taken, rinsed with saline, dried on filter paper and weighed.
Blood samples were centrifuged at 8000 rpm for 5 minutes, and supernatant plasma was taken. To 50 μL of plasma samples was added 300 μL of acetonitrile containing internal standard (propranolol, 25 ng/mL) to precipitate the protein. After vortexing for 10 minutes and centrifuging at 6000 g and 4° C. for 10 minutes, the supernatant was taken and placed in a 96-well plate for determination of drug concentration in plasma by UPLC/MS-MS.

Sequence of p38β (Q15759 whole entry): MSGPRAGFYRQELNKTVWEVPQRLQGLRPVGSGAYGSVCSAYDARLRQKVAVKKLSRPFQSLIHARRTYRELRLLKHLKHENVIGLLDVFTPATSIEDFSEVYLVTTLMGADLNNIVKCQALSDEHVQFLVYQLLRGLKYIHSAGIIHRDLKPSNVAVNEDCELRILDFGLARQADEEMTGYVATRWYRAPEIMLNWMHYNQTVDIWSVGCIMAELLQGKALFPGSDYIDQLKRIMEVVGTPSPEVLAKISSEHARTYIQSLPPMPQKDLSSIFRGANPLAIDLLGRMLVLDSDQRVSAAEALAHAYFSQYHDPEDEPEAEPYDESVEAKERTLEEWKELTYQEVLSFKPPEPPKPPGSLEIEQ
Sequence of p38α (Q16539 whole entry): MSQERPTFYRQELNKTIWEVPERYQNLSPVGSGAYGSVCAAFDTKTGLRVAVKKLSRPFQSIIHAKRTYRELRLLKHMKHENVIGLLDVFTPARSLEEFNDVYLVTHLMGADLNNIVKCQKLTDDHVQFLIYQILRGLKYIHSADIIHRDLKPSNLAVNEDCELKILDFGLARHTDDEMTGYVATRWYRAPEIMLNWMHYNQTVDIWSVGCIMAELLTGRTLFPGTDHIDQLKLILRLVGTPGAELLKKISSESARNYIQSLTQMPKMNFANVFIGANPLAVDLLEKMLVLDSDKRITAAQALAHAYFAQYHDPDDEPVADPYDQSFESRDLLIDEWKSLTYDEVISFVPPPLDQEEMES

IC50 (p38β) | IC50 (p38γ) | IC50 (p38α) | IC50 (BV-2 cells) | absorption compared with the positive compound VX-745 at the same dose [1] | Thalf (iv) [1] | Cmax [1] | MRT [1] | Tmax [1] | BA [1] | AUClast (po) [1] | Compound | Emax (BV-2 cells)
109 nM | > 3330 nM | 11.7 nM | 18.8 nM |  |  |  |  |  |  |  | O=c1ncn2nc(Oc3ccccc3F)ccc2c1-c1c(Cl)cccc1Cl [Compound I-27, 5-(2,6-dichlorophenyl)-2-(2-fluorophenoxy)-6H-pyrimido[1,6-b]pyridazin-6-one] | 41.9%
316 nM | > 3330 nM | 34.8 nM | 95.8 nM |  |  |  |  |  |  |  | O=c1ncn2nc(Oc3ccccc3Br)ccc2c1-c1c(Cl)cccc1Cl [Compound I-17, 2-(2-bromophenoxy)-5-(2,6-dichlorophenyl)-6H-pyrimido[1,6-b]pyridazin-6-one] | -60%
111 nM | > 3330 nM | 14.8 nM | 12.4 nM |  |  |  |  |  |  |  | CC(C)N1CCN(c2cc3c(-c4c(Cl)cccc4Cl)c(=O)ncn3nc2Oc2ccc(F)cc2F)CC1 [Compound I-60, 5-(2,6-dichlorophenyl)-2-(2,4-difluorophenoxy)-3-(4-isopropylpiperazin-1-yl)-6H-pyrimido[1,6-b]pyridazin-6-one] | 34.5%
97.1 nM | > 3330 nM | 14.8 nM | 8.58 nM |  |  |  |  |  |  |  | O=c1ncn2nc(Oc3ccc(F)cc3Cl)ccc2c1-c1c(Cl)cccc1Cl [Compound I-18, 2-(2-chloro-4-fluorophenoxy)-5-(2,6-dichlorophenyl)-6H-pyrimido[1,6-b]pyridazin-6-one] | 50.6%
109 nM | > 3330 nM | 13.6 nM | 16.1 nM |  |  |  |  |  |  |  | O=c1ncn2nc(Oc3ccc(Cl)cc3F)ccc2c1-c1c(Cl)cccc1Cl [Compound I-6, 2-(4-chloro-2-fluorophenoxy)-5-(2,6-dichlorophenyl)-6H-pyrimido[1,6-b]pyridazin-6-one] | 44.7%
226 nM | > 3330 nM | 27.7 nM | 19.2 nM |  |  |  |  |  |  |  | O=c1ncn2nc(Oc3cc(F)ccc3F)ccc2c1-c1c(Cl)cccc1Cl [Compound I-21, 5-(2,6-dichlorophenyl)-2-(2,5-difluorophenoxy)-6H-pyrimido[1,6-b]pyridazin-6-one] | 51.3%
302 nM | > 3330 nM | 32.8 nM | 176 nM |  |  |  |  |  |  |  | O=c1ncn2nc(Oc3cccc(Cl)c3Cl)ccc2c1-c1c(Cl)cccc1Cl [Compound I-12, 2-(2,3-dichlorophenoxy)-5-(2,6-dichlorophenyl)-6H-pyrimido[1,6-b]pyridazin-6-one] | 49.5%
1090 nM | > 3330 nM | 34.2 nM |  | better | 1.93 h | 928 ng/mL | 3.05 h | 0.83 h | 84.9% | 3107 (h)*(ng/mL) | Cc1ccccc1-c1c(=O)ncn2nc(Oc3ccc(F)cc3F)ccc12 [Compound I-50, 2-(2,4-difluorophenoxy)-5-(o-methylphenyl)-6H-pyrimido[1,6-b]pyridazin-6-one] | 
243 nM | > 3330 nM | 46.9 nM | 17.2 nM |  |  |  |  |  |  |  | O=c1ncn2nc(Oc3cccc(F)c3F)ccc2c1-c1c(Cl)cccc1Cl [Compound I-23, 5-(2,6-dichlorophenyl)-2-(2,3-difluorophenoxy)-6H-pyrimido[1,6-b]pyridazin-6-one] | -50%
403 nM | > 3330 nM | 19.7 nM |  | better | 3.96 h | 891 ng/mL | 4.86 h | 2 h | 119.3% | 4016 (h)*(ng/mL) | O=c1ncn2nc(Oc3ccc(F)cc3F)ccc2c1-c1cc(Cl)ccc1Cl [Compound I-46, 5-(2,5-dichlorophenyl)-2-(2,4-difluorophenoxy)-6H-pyrimido[1,6-b]pyridazin-6-one] | 
> 3330 nM | > 3330 nM | 2690 nM |  |  |  |  |  |  |  |  | O=c1ncn2nc(OC3CCOCC3)ccc2c1-c1c(Cl)cccc1Cl [Compound I-2, 5-(2,6-dichlorophenyl)-2-((tetrahydro-2H-pyran-4-yl)oxy)-6H-pyrimido[1,6-b]pyridazin-6-one] | 
